Results reported in US11098056B2, “UDP glycosyltransferase inhibitors and methods of use” (GENZYME CORPORATION, priority 2018, dated 2021).

Target: T1, UGT8 (Homo sapiens, UniProt Q16880)
T1 construct: host or cells: OE19 cells
T1 sequence (Q16880 21-541): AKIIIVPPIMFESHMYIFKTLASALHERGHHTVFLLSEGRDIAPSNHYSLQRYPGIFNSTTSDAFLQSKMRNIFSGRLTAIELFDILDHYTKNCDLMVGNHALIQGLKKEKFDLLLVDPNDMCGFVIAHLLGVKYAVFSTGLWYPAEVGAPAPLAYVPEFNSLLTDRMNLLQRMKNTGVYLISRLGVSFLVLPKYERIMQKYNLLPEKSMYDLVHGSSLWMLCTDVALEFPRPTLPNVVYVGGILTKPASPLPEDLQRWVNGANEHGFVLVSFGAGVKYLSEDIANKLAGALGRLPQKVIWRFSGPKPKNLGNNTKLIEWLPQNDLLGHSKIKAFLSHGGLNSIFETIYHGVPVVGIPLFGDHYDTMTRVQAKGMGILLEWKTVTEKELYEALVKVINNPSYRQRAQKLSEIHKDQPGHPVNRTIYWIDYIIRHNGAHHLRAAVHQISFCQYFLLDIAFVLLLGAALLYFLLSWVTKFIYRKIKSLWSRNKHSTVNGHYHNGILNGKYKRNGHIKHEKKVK
Experiment: In vitro sulfatide (SFT) synthesis inhibition in OE19 cells, LC-MS/MS readout
Type: cell-based
Conditions: 72 hr, sulfatide by LC-MS/MS, read-out: Potency range (IC50, In-vitro SFT)
Experimental: For medium throughput screening, library compounds were dispensed into CellBIND 384 well plates to a final concentration of 10 μM. OE19 cells (Sigma) were grown in to 70-90% confluency in RPMI 1640+L-glutamine and […]; were trypsinized to achieve suspension and were aliquoted at 2,500 cells/well, total well volume 50 μl. Plates were incubated 72 hr at 37° C. in 5% CO2; supernatant was removed and plates were dried, heat-sealed and stored at −20° C. until analysis.
For IC50 determinations, the same procedure was followed except that test compounds were added to the plate as dose-downs in triplicate to yield concentration response curves.
Mass Spectrometer Analysis of Sulfatide (SFT):
Assay plates were thawed and 85 μl mobile phase B (5 mM ammonium formate^+0.2% formic acid in 50:50 methanol:acetonitrile). Fifteen μl 20 ng/ml C17 SFT in mobile phase B was added as an internal standard.
SFT was analyzed using an Applied Biosystems API-4000 triple quad mass spectrometer interfaced to a Thermo Scientific Multiplex system (LX-4) equipped with four pumps. Chromatography of OE19 cell samples or 2B5-mouse cells treated with compounds was performed using a Waters Acquity UPLC BEH C8 2.1×50 mm column with 1.7 um particle size. The chromatography was performed using the following mobile phases. Mobile phase A (MPA): 0.2% formic acid and 5 mM ammonium formate in deionized water; MPB: see above. The LC method was run in isocratic mode for 4 sequentially running columns using 95% MPB and 5% MPA with flow rate of 1 ml/min and a column temperature of 60° C.
The Triple quad mass spectrometer was run in Negative Ionization mode monitoring the following MRM transitions and using the following parameters:
Electrospray voltage was […], and source temperature was 550° C.

Row | IC50 [nM] | SMILES
1 | < 100 | CC[C@H](C)NC(=O)OC1CCN(c2cc(C(F)(F)F)c3scc(C(=O)NC)c3n2)CC1 [Example 63, 1-(3-(Methylcarbamoyl)-7-(trifluoromethyl)thieno[3,2-b]pyridin-5-yl)piperidin-4-yl (S)-sec-butylcarbamate]
2 | > 1000 | CNC(=O)c1csc2c(C(F)(F)F)cc(N3CCC(OC(=O)NCC4CN(C)CCO4)CC3)nc12 (stereo not drawn) [Example 115, 1-(3-(Methylcarbamoyl)-7-(trifluoromethyl)thieno[3,2-b]pyridin-5-yl)piperidin-4-yl ((4-methylmorpholin-2-yl)methyl)carbamate]
3 | < 100 | CNC(=O)c1csc2c(C(F)(F)F)c(C)c(N3CCC(OC(=O)N[C@@H](C)C4CC4)CC3)nc12 [Example 151, 1-(6-Methyl-3-(methylcarbamoyl)-7-(trifluoromethyl)thieno[3,2-b]pyridin-5-yl)piperidin-4-yl (S)-(1-cyclopropylethyl)carbamate]
4 | < 100 | CNC(=O)c1csc2c(C(F)(F)F)cc(OC3CCN(C(=O)OCCOC(F)(F)F)CC3)nc12 [Example 171, 2-(Trifluoromethoxy)ethyl 4-((3-(methylcarbamoyl)-7-(trifluoromethyl)thieno[3,2-b]pyridin-5-yl)oxy)piperidine-1-carboxylate]
5 | < 100 | CNC(=O)c1csc2c(C(F)(F)F)cc(O[C@@H]3CCN(C(=O)O[C@@H](C)COC(F)(F)F)[C@H](C)C3)nc12 [Example 175, (S)-1-(Trifluoromethoxy)propan-2-yl (2R,4R)-2-methyl-4-((3-(methylcarbamoyl)-7-(trifluoromethyl)thieno[3,2-b]pyridin-5-yl)oxy)piperidine-1-carboxylate]
6 | < 100 | CNC(=O)c1csc2c(C(F)(F)F)c(C)c(O[C@@H]3CCN(C(=O)O[C@@H](C)COC(F)(F)F)[C@H](C)C3)nc12 [Example 176, (S)-1-(Trifluoromethoxy)propan-2-yl (2R,4R)-2-methyl-4-((6-methyl-3-(methylcarbamoyl)-7-(trifluoromethyl)thieno[3,2-b]pyridin-5-yl)oxy)piperidine-1-carboxylate]
7 | < 100 | CNC(=O)c1csc2c(C(F)(F)F)c(C)c(O[C@@H]3CCN(C(=O)OCCOC(F)(F)F)C[C@@H]3F)nc12 [Example 180, 2-(Trifluoromethoxy)ethyl (3S,4R)-3-fluoro-4-((6-methyl-3-(methylcarbamoyl)-7-(trifluoromethyl)thieno[3,2-b]pyridin-5-yl)oxy)piperidine-1-carboxylate]
8 | < 100 | CNC(=O)c1csc2c(C(F)(F)F)c(C)c(O[C@@H]3CCN(C(=O)O[C@@H](C)COC(F)(F)F)C[C@@H]3F)nc12 [Example 181, (S)-1-(Trifluoromethoxy)propan-2-yl (3S,4R)-3-fluoro-4-((6-methyl-3-(methylcarbamoyl)-7-(trifluoromethyl)thieno[3,2-b]pyridin-5-yl)oxy)piperidine-1-carboxylate]
9 | < 100 | CNC(=O)c1csc2c(C(F)(F)F)c(C)c(O[C@H]3CCN(C(=O)O[C@@H](C)COC(F)(F)F)C[C@H]3F)nc12 [Example 183, (S)-1-(Trifluoromethoxy)propan-2-yl (3R,4S)-3-fluoro-4-((6-methyl-3-(methylcarbamoyl)-7-(trifluoromethyl)thieno[3,2-b]pyridin-5-yl)oxy)piperidine-1-carboxylate]
10 | < 100 | CNC(=O)c1csc2c(C(F)(F)F)nc(N3CCC(OC(=O)N[C@@H](C)COC)CC3)nc12 [Example 186, 1-(7-(Methylcarbamoyl)-4-(trifluoromethyl)thieno[3,2-d]pyrimidin-2-yl)piperidin-4-yl (S)-(1-methoxypropan-2-yl)carbamate]
11 | < 100 | CNC(=O)c1csc2c(C(F)(F)F)nc(N3CCC(OC(=O)N[C@@H](C)C4CC4)CC3)nc12 [Example 187, 1-(7-(Methylcarbamoyl)-4-(trifluoromethyl)thieno[3,2-d]pyrimidin-2-yl)piperidin-4-yl-(S)-(1-cyclopropylethyl)carbamate]
12 | < 100 | CNC(=O)c1csc2c(C(F)(F)F)c(C)c(O[C@H]3C[C@@H](NC(=O)OCC4CC4)C3)nc12 [Example 218, Cyclopropylmethyl ((1S,3S)-3-((6-methyl-3-(methylcarbamoyl)-7-(trifluoromethyl)thieno[3,2-b]pyridin-5-yl)oxy)cyclobutyl)carbamate]
13 | < 100 | CNC(=O)c1csc2c(C(F)(F)F)c(C)c(O[C@H]3C[C@@H](NC(=O)O[C@@H](C)C4CC4)C3)nc12 [Example 220, (S)-1-Cyclopropylethyl ((1S,3R)-3-((6-methyl-3-(methylcarbamoyl)-7 (trifluoromethyl)thieno[3,2-b]pyridin-5-yl)oxy)cyclobutyl)carbamate]

Continued, compound first:

Row | SMILES | IC50 [nM]
14 | CNC(=O)c1csc2c(C(F)(F)F)cc(N3CCC(OC(=O)N4CCC4)CC3)nc12 [Example 60, 1-(3-(Methylcarbamoyl)-7-(trifluoromethyl)thieno[3,2-b]pyridin-5-yl)piperidin-4-yl azetidine-1-carboxylate] | < 100
15 | CNC(=O)c1csc2c(C(F)(F)F)cc(N3CCC(OC(=O)N4CC(OC(F)F)C4)CC3)nc12 [Example 87, 1-(3-(Methylcarbamoyl)-7-(trifluoromethyl)thieno[3,2-b]pyridin-5-yl)piperidin-4-yl 3-(difluoromethoxy)azetidine-1-carboxylate] | < 100
16 | CNC(=O)c1csc2c(C(F)(F)F)cc(N3CCC(OC(=O)N4CC(OC(F)(F)F)C4)CC3)nc12 [Example 88, 1-(3-(Methylcarbamoyl)-7-(trifluoromethyl)thieno[3,2-b]pyridin-5-yl)piperidin-4-yl 3-(trifluoromethoxy)azetidine-1-carboxylate] | < 100
17 | CNC(=O)c1csc2c(C(F)(F)F)cc(N3CCC(OC(=O)NC(C)C)C(F)(F)C3)nc12 (stereo not drawn) [Example 91, 3,3-Difluoro-1-(3-(methylcarbamoyl)-7-(trifluoromethyl)thieno[3,2-b]pyridin-5-yl)piperidin-4-yl isopropylcarbamate] | < 100
18 | CNC(=O)c1csc2c(C(F)(F)F)cc(N3CCC(OC(=O)N4CCn5nccc5C4)CC3)nc12 [Example 95, 1-(3-(Methylcarbamoyl)-7-(trifluoromethyl)thieno[3,2-b]pyridin-5-yl)piperidin-4-yl 6,7-dihydropyrazolo[1,5-a]pyrazine-5(4H)-carboxylate] | < 100
19 | CNC(=O)c1csc2ccc(N3CCC(OC(=O)N[C@@H](C)COC(F)(F)F)CC3)nc12 [Example 142, 1-(3-(Methylcarbamoyl)thieno[3,2-b]pyridin-5-yl)piperidin-4-yl (S)-(1-(trifluoromethoxy)propan-2-yl)carbamate] | < 100
20 | CNC(=O)c1csc2c(C(F)(F)F)cc(N3CCC(Oc4cccc(C)n4)CC3)nc12 [Example 145, N-Methyl-5-(4-((6-methylpyridin-2-yl)oxy)piperidin-1-yl)-7-(trifluoromethyl)thieno[3,2-b]pyridine-3-carboxamide] | < 100
21 | CNC(=O)c1csc2c(C(F)(F)F)cc(N3CC(Oc4cncc(F)c4)C3)nc12 [Example 190, 5-(3-((5-Fluoropyridin-3-yl)oxy)azetidin-1-yl)-N-methyl-7-(trifluoromethyl)thieno[3,2-b]pyridine-3-carboxamide] | 100 to 1000
22 | CNC(=O)c1csc2c(C(F)(F)F)cc(OC3CC4(C3)CN(C(=O)O[C@H](C)C3CC3)C4)nc12 [Example 204, (R)-1-Cyclopropylethyl 6-((3-(methylcarbamoyl)-7-(trifluoromethyl)thieno[3,2-b]pyridin-5-yl)oxy)-2-azaspiro[3.3]heptane-2-carboxylate] | < 100
23 | CNC(=O)c1csc2c(C(F)(F)F)cc(OC3CC4(CCN4C(=O)OCCOC(F)(F)F)C3)nc12 (stereo not drawn) [Example 212, 2-(Trifluoromethoxy)ethyl 6-((3-(methylcarbamoyl)-7-(trifluoromethyl)thieno[3,2-b]pyridin-5-yl)oxy)-1-azaspiro[3.3]heptane-1-carboxylate] | 100 to 1000
24 | CNC(=O)c1csc2c(C(F)(F)F)cc(OC3(C)CN(C(=O)OCCOC(F)(F)F)C3)nc12 [Example 254, 2-(Trifluoromethoxy)ethyl 3-methyl-3-((3-(methylcarbamoyl)-7-(trifluoromethyl)thieno[3,2-b]pyridin-5-yl)oxy)azetidine-1-carboxylate] | < 100
